Data taken from patent US6548533B2, “Ureido substituted pyrrolidines” (Aventis Pharma Limited, priority 1999, dated 2003).

## COc1cc(CC(=O)Nc2ccc(C3CN(Cc4ccccc4)CC3C(=O)O)cc2)ccc1NC(=O)Nc1ccccc1C (centres unmarked) [Example 5, 1-Benzyl-4-(4-{2-[3-methoxy-4-(3-o-tolyl-ureido)-phenyl]-acetylamino}-phenyl)-pyrrolidine-3-carboxylic Acid]
  melting point: 255 °C

## COc1cc(CC(=O)Nc2ccc(C3CN(C(=O)c4ccccc4)CC3C(=O)O)cc2)ccc1NC(=O)Nc1ccccc1C (centres unmarked) [Example 2, 1-Benzoyl-4-(4-{2-[3-methoxy-4-(3-o-tolyl-ureido)-phenyl]-acetylamino}-phenyl)-pyrrolidine-3-carboxylic Acid]
  melting point: 248 °C

## COc1cc(CC(=O)Nc2ccc(C3CN(C(C)=O)CC3C(=O)O)cc2)ccc1NC(=O)Nc1ccccc1C (centres unmarked) [Example 1, 1-Acetyl-4-(4-{2-[3-methoxy-4-(3-o-tolyl-ureido)-phenyl]-acetylamino}-phenyl)-pyrrolidine-3-carboxylic Acid]
  melting point: 242 °C

## COc1cc(CC(=O)Nc2ccc(C3CN(C(=O)CCC(=O)O)CC3C(=O)O)cc2)ccc1NC(=O)Nc1ccccc1C (centres unmarked) [Example 3, 1-(3-Carboxy-propionyl)-4-(4-{2-[3-methoxy-4-(3-o-tolyl-ureido)-phenyl]-acetylamino}-phenyl)-pyrrolidine-3-carboxylic Acid]
  melting point: 184 °C

## COc1cc(CC(=O)Nc2ccc(C3C(C(=O)O)CCN3C(=O)c3ccccc3)cc2)ccc1NC(=O)Nc1ccccc1C (centres unmarked) [Example 4, 1-Benzoyl-2-(4-{2-[3-methoxy-4-(3-o-tolyl-ureido)-phenyl]-acetylamino}-phenyl)-pyrrolidine-3-carboxylic Acid]
  melting point: 155 °C (dec.)
